Test results as given in US20220378714A1, “USE OF CANNABIDIOL PREPARATIONS IN THE TREATMENT OF FRAGILE X SYNDROME” (GW Research Limited, priority 2019, published 2022).

Columns and labels:
Type in all cases: in vivo
Fmr1 KO mice [1] = experiment: Open field
Experimental: (§1) 60 male mice were tested at 8 weeks of age. CBD (SYN OR BOT 0.08%) were evaluated at 2 doses each (20 and 200 mg/kg) following once daily intraperitoneal administration, at a dose volume of 10 ml/kg. Compounds were administered for 2 weeks prior to the start of testing and throughout testing.
(§2) On the test day, compounds were administered 60 minutes prior to test.
The open field chambers are Plexiglas square chambers (27.3×27.3×20.3 cm; Med Associates Inc., St Albans, Vt.) surrounded by infrared photo beams (16×16×16) to measure horizontal and vertical activity. On the day of testing, mice were brought to the activity experimental room for acclimation to the conditions at least 1 h prior to testing. After a 60 minute pretreatment time, mice were placed in the center of an open field activity box for a 60 minute test period. After the completion of the test, mice were placed back in their home cage.
The time courses for locomotor and rearing activities were presented in 5-minute bins during the 60 minute test. Total distance traveled, and numbers of rears were also summed during the 60 minute test.

Fmr1 KO mice [2] = experiment: Social interaction (three-chamber paradigm); settings: higher dose (200 mg/kg i.p.)
Experimental: as §1, §2
The three-chamber paradigm is used to assess social interest. The Plexiglas testing apparatus consists of two side chambers and a center chamber, each 42.5 cm×17.5 cm×23 cm. […]
Group-housed naïve partner mice (age-matched C3H mice) were habituated to the chamber for 30 minutes the day before testing. […] The doorways were then lifted and the subject was allowed to feely explore all three chambers for 10 min while movement was video-recorded and scored manually for sniffing of the mouse or object. […]
Discrimination percentage for time spent in chambers was calculated as (total time spent in mouse chamber-total time spent in object)/(total time spent in mouse+total time in object chamber)*100 and presented in FIG. 4.
Discrimination percentage for interaction frequency was calculated as (number of interactions with mouse−number of interactions with object)/(total number of interactions with the mouse+the object)*100 and is presented in FIG. 5. […]

Fmr1 KO mice [3] = experiment: Audiogenic seizures (cohort 1); settings: 200 mg/kg i.p. acute, 60 min pre-treatment, vs vehicle-treated Fmr1 KO
Experimental: 48 male mice were tested at 3 weeks of age. CBD (SYN OR BOT 0.08%) were tested at 2 doses each (20 and 200 mg/kg) following acute intraperitoneal administration at a dose volume of 10 ml/kg. Compounds were administered 60 minutes prior to test.
Following pre-treatment with vehicle or test compound, mice were individually placed in a Plexiglas chamber and allowed to explore for 15 s following which they were exposed to a 125 dB tone for 2 minutes, followed by 1 minute of no sound, and then a further 2 minute tone. The mice were scored based on their response, latency, and seizure intensity:
The following endpoints were reported: • 1. Latency to seize: Time to first seizure (maximum 300 s). […] Latency to respiratory arrest: Time to death (maximum 300 s). Animals that survived received a score of 300 s. • 3. Seizure Score: Maximum score animals obtained during the 5 minute test.

Fmr1 KO mice [4] = experiment: Behavioral testing (cohort 2), overall conclusion; settings: 20 and 200 mg/kg i.p. once daily
Experimental: Test compounds were evaluated at 2 doses each (20 and 200 mg/kg). Test compounds were injected i.p. (intraperitoneal) acutely at 60 min pre-treatment for audiogenic seizures (cohort 1). For all other behavioural testing, a separate cohort of animals were dosed i.p. once per day for 2 weeks prior to the start of testing and then for 2 weeks during testing, with 60 min pre-treatment on test days (cohort 2).
as §1, §2

## C=C(C)[C@@H]1CCC(C)=C[C@H]1c1c(O)cc(CCCCC)cc1O [CBD (SYN), cannabidiol]
Fmr1 KO mice [1]; 20 mg/kg i.p. once daily, 60 min pre-treatment
  total distance traveled during the 60 minute test period: traveled significantly more than mice treated with CBD (BOT 0.08%) 20 mg/kg
Fmr1 KO mice [1]; 200 mg/kg i.p. once daily, post-hoc multiple comparisons
  rearing frequency in 5 min bins: periods in which Fmr1 KO-vehicle treated mice reared significantly more than the treated group: during minutes 35-40 and during minutes 55-60
Fmr1 KO mice [2]; Dunn's test vs vehicle-treated Fmr1 KO
  discrimination percentage for time spent in chambers: enhanced discrimination compared to vehicle-treated Fmr1 KO mice
Fmr1 KO mice [2]; Sidak's test vs Fmr1 KO vehicle
  total time spent in the partner mouse chamber: spent significantly more time in the partner mouse chamber
Fmr1 KO mice [3]
  median seizure score: This effect was not observed
Fmr1 KO mice [4]
  social or memory related behaviors: Neither the botanically derived purified CBD or the synthetic CBD were found to have any significant improvement
